Results from US20250288558A1, “THERAPEUTIC FOR SPINAL CORD INJURY TO INDUCE HYPOTHERMIA” (The Trustees of Indiana University, priority 2024, published 2025).
Where “and” joins values, the source holds several entries; their conditions need not be identical. Identical values can stand only once. Counter-ions that a name gives are not always drawn. Like-named read-outs stand apart in the source and are kept apart here.

How the values were obtained:
[1] = system: mice with moderate T9 contusive SCI; details: weeks 3-6 post-injury, n=10, p<0.05
Excerpt: Thus, Rotarod was further performed to assess motor coordination, balance, and motor learning specifically post-injury.
Rotarod test: Rotorod is used to assay the hindlimb function of the animal. The animal was put on a rotated device. It consisted of a metal frame with a motorized, rotating assembly of rods. Animals were allowed to remain stationary. […] If animal skilled, it can remain on the device at this speed for extra 30 sec until the 2-min test period elapsed. Normally, a trial was ended if the animal fell completely off the rod or gripped the rod and spun around without attempting to walk on the rod. Mean duration on the rod was recorded.

[2] = system: none-injury young adult c57 BL/6 mice
Experimental: (§1) The effects of different doses of Dex on hypothermia induction in none-injury young adult c57 BL/6 mice was tested. […] Further, we examined the change of Dex induced hypothermia when the routine Avertin (2.5%), a wildly used anesthetic for small animal surgery was applied.

[3] = system: spinal cord coronal sections of SCI mice; details: female, n=3
Experimental: We first measured the lesion size and spared white matter using cresyl violet and cosin staining.
Tissue Processing: All the animals were deeply anesthetized with Avertin and then perfused transcardially with cold saline, followed by a fixative containing 4% paraformaldehyde (PFA) in PBS. The spinal cord was removed, post-fixed overnight in PFA, and cryoprotected for 48 hours in 30% sucrose. Serial 30 μm thick coronal sections were cut using a cryostat (Leica CM 1950), mounted on slides and stored at −20° C. The sections were then processed for histopathological analysis.
Cresyl violet and cosin staining: A set of slides were first removed from the freezer and allowed to air dry for a minimum of 60 minutes at room temperature. Subsequently, the sections were treated with two 5-minute rinses in 10 mM PBS, followed by a 1-minute rinse in ddH2O. Next, slides were immersed for 20 minutes in Nissl stain, followed by two 5-minute rinses in ddH2O. Subsequently, slides were sequentially immersed in 90% ethanol (3 minutes), 95% ethanol (3 minutes), two changes of 100% ethanol (3 minutes each), and finally, three changes of 100% xylene (3 minutes each). Lastly, slides were mounted using Permount.

[4] = system: mice with moderate contusive spinal cord injury (SCI) at thoracic 9 (T9)
Experimental: as §1
Therefore, we compared the functional outcomes of Dex treated SCI mice with SCI only mice using multiple behavior tests post-trauma. C57 BL/6 wild type mice (female) at age of 8 weeks were randomly assigned into three different groups, including sham, SCI, and SCI+Dex. Then the moderate T9 contusive SCI was introduced in two injury groups using LISA injury model. Mice in sham and SCI only group were put on the heating pad to maintain their normal body temperature, while mice in Dex treated group were exposed in ambient room temperature of 24.5° C. for hypothermia during whole surgery and recovery process. One hour after injury, one dose of Dex (100 μg/kg) was IP administrated to rapidly induce early moderate to modest therapeutic hypothermia (30-32° C.). All mice body temperature were measured by rectal probe every 30 minutes to monitor the hypothermia after surgery till the mice fully waked up and back to normothermia. After SCI injury, at different time, multiple behavioral tests, were applied to examine functional outcomes and the potential neuroprotective effects of Dex treatment (FIG. 3A). The Basso Mouse Scale (BMS) was a reliable measurement that developed to examine the locomotion in spinal cord injured mice. It has been widely used in mouse functional evaluation and serves as an indicator of recovery. This test examines different locomotor categories such as paralysis, weight support, stepping, trunk stability, and so on. The scores ranged from 9 to 0 that represent normal movement to complete paralysis, respectively. Three days prior surgery, the BMS scores of all mice in different groups were measured. Only mice with 9 score were kept. The mice with score lower than 9 were replaced to make sure mice in different groups had same baseline of locomotion. After surgery, the BMS score was repeatedly measured at 3 days, 1 week, 2 weeks, 3 weeks, 4 weeks, 5 weeks, and 6 weeks (FIG. 3B).
Contusive spinal cord injury: Adult female C57BL/6 mice (8 weeks old, 18-22 g) were purchased from The Jackson Laboratory (Bar Harbor, ME). Depending on different injury model, mice were either randomly divided into three groups: sham, SCI+heating pad, and SCI+Dex for LISA injury model, or were randomly divided into four groups: sham, SCI+heating pad, SCI+Dex, and SCI+Conventional hypothermia for Infinite Horizons (IH) model. […]

[5] = system: NeuN-positive neurons; details: after SCI, FIG. 8A
Experimental: (§2) We further counted the number of NeuN-positive neurons in each section. […] Therefore, SMI31, an axon maker immunostaining was performed to evaluate the axons in spared white matter.
(§3) Immunofluorescent Staining: Immunofluorescent staining was carried out according to our previous reports. In brief, sections on the slides were rinsed in PBS 3 times (5 minutes each) and incubated in blocking buffer (0.1% Triton X-100, 1% bovine serum albumin, and 5% normal serum in PBS) for 1 hour at room temperature. Then, primary antibodies were added to blocking buffer and incubated with sections overnight at 4° C. After 3 washes with PBS (5 minutes each), sections were incubated with the secondary antibody for 1 hour at room temperature and then treated with 4′,6-Diamidino-2-phenylindole (DAPI) for 2 minutes. Finally, sections were washed 3 times with PBS (5 minutes each), dried, and mounted using Fluoromount G (Southern Biotech, Birmingham, AL, USA). Primary antibodies and their final concentrations were as follows: NeuN antibody (1:500, chicken, Abcam, ab134014), SMI31 antibody (1:1000, mouse, Millipore, NE1022), and GFAP antibody (1:1000, mouse, Sigma, G3893).

[6] = system: SMI31-positive axons in white matter; details: FIG. 8B
Experimental: as §2, §3

[7] = system: mice with contusive T9 moderate SCI (IH); details: end of BMS test, IH model
Excerpt: The scores ranged from 9 to 0 that represent normal movement to complete paralysis, respectively.

Which “increased rate of Rotarod retention time vs. SCI only” value [1] does the source give for Cc1cccc([C@H](C)c2cnc[nH]2)c1C [Dex, dexmedetomidine hydrochloride] here?
Its value is “around 75%”.

What about the hypothermia induction ([2]; Dex 1 μg/kg IP, none-injury mice) of the same compound?
Its hypothermia induction is “failed to induce hypothermia”.

And the hypothermia induction ([2]; Dex 10 μg/kg IP, none-injury mice)?
Its hypothermia induction is “failed to induce hypothermia”.

What about the duration of hypothermia ([2]; Dex 50 μg/kg IP, ambient temperature 24.5° C.) of the same compound?
Its duration of hypothermia is “less than one hour”.

What about the hypothermia body temperature ([2]; Dex 50 μg/kg IP, ambient temperature 24.5° C., mild hypothermia) of the same compound?
The hypothermia body temperature was 34-35 °C.

And the duration of hypothermia ([2]; Dex 50 μg/kg one hour post Avertin (2.5%), none-injury mice)?
Its duration of hypothermia is 2 h.

And the duration of hypothermia ([2]; Dex 100 μg/kg IP alone, ambient temperature 24.5° C., hydrochloride)?
The duration of hypothermia was 2 h and 3 h.

And the hypothermia body temperature ([2]; Dex 100 μg/kg IP, mild to moderate hypothermia)?
The hypothermia body temperature was 30-32 °C.

What about the duration of hypothermia ([2]; Dex 100 μg/kg one hour post Avertin (2.5%), none-injury mice) of the same compound?
The duration of hypothermia was 6 h.

What about the “death of treated mice” value ([2]; Dex 200 μg/kg IP, due to urethral obstructions) of the same compound?
The value was “about 40%”.

What about the hypothermia body temperature ([2]; Dex 200 μg/kg IP, more severe hypothermia) of the same compound?
The hypothermia body temperature was “lower than 28 °C”.

And the “induced hypothermia body temperature” value ([2]; in one hour at ambient temperatures 24-25° C., modest hypothermia)?
The value was 30-32 °C.

What about the “total area of spinal cord section, SCI+Dex vs. SCI” value [3] of the same compound?
The value was “no significant difference”.

And the “time at which normal body temperature was regained” value ([4]; Dex 100 μg/kg 1 hour after T9 SCI)?
The value was 24 hr post trauma.

What about the duration of hypothermia ([4]; Dex 100 μg/kg one hour after T9 SCI (LISA)) of the same compound?
The duration of hypothermia was “up to 16 hours”.

What about the “time to spontaneously rewarm to normal temperature” value ([4]; Dex 100 μg/kg one hour after T9 SCI, after the hypothermia period) of the same compound?
Its value is 5 to 6 h.

And the rewarming rate ([4]; Dex 100 μg/kg one hour after T9 SCI, spontaneous rewarming, hydrochloride)?
Its rewarming rate is < 1.0 °C per hour.

And the “surviving NeuN-positive neurons compared to none-treatment group” value [5]?
Its value is “about 10 times”.

And the “SMI31 signal (intensity and area) vs. SCI” value [6]?
The value was “significantly preserved more”.

And the “BMS increase rate vs. SCI” value [7]?
The value was 56%.

And the BMS score ([7]; SCI+Dex, n=10)?
The BMS score was 7.13±0.48.
